Measured values as given in ChEMBL document CHEMBL5236658, “Trienomycin A-simplified analogs: Synthesis and anti-neuroinflammatory activity” (Bioorg Med Chem Lett, 2023).

System: BV-2
Assay: Antineuroinflammatory activity in mouse BV-2 cells assessed as inhibition of LPS-induced NO production at 10 uM by Griess assay
Assay type: functional
Set-up: scale not given: the % may be the effect or the level left
Settings: not given

Row | Compound | Activity [%]
1 | C[C@@H](NC(=O)C1CCCCC1)C(=O)OC1CC=CC1 | 17.7
2 | C[C@@H](NC(=O)C1CCCCC1)C(=O)O | 6.72
3 | C[C@@H](NC(=O)C1CCCCC1)C(=O)OC1CCCCCC1 | 18
4 | C[C@@H](NC(=O)C1CCCCC1)C(=O)OC1C=CCCC1 (some centres undefined) | 14.5
5 | C[C@@H](NC(=O)C1CCCCC1)C(=O)OC1CCC1 | 8
6 | C[C@@H](NC(=O)C1CCCCC1)C(=O)OC1CCCC1 | 36
7 | C[C@H](NC(=O)C1CCCCC1)C(=O)OCc1ccccc1 | 31.8
8 | C[C@H](NC(=O)C1CCCCC1)C(=O)OCC1CCCCC1 | 52.9
9 | C[C@@H](NC(=O)C1CCCCC1)C(=O)OC1CCCCCCCCCCCCCC1 | 12.5
10 | C[C@@H](NC(=O)C1CCCCC1)C(=O)OC1CC1 | 9.7
11 | C[C@H](NC(=O)C1CCCCC1)C(=O)OC1CCCCC1 | 41.8
12 | C[C@@H](NC(=O)C1CCCCC1)C(=O)OCc1ccccc1 | 47.2
13 | C[C@@H](NC(=O)C1CCCCC1)C(=O)OC1CC/C=C\CCC1 (some centres undefined) | 28.4
14 | C[C@@H](NC(=O)C1CCCCC1)C(=O)OC1CCCCCCCCCCC1 | 19
15 | C[C@@H](NC(=O)C1CCCCC1)C(=O)OC1CCCCCCC1 | 8.3
16 | C[C@@H](NC(=O)C1CCCCC1)C(=O)OCC1CCCCC1 | 31.1
17 | C[C@@H](NC(=O)C1CCCCC1)C(=O)OC1CCCCC1 | 34.6
18 | O=c1c(O)c(-c2ccc(O)c(O)c2)oc2cc(O)cc(O)c12 [QUERCETIN] | 63.2

System: not listed separately
Assay: Cytotoxicity against mouse BV-2 cells assessed as cell viability at 20 uM
Assay type: toxicity, cell-based
Settings: read-out: Activity

Row | Compound | viability at 20 µM [%]
19 | C[C@@H](NC(=O)C1CCCCC1)C(=O)OC1CC=CC1 | 91.5
20 | C[C@@H](NC(=O)C1CCCCC1)C(=O)O | 101
21 | C[C@@H](NC(=O)C1CCCCC1)C(=O)OC1CCCCCC1 | 96.1
22 | C[C@@H](NC(=O)C1CCCCC1)C(=O)OC1C=CCCC1 (some centres undefined) | 85.4
23 | C[C@@H](NC(=O)C1CCCCC1)C(=O)OC1CCC1 | 106
24 | C[C@@H](NC(=O)C1CCCCC1)C(=O)OC1CCCC1 | 86.2
25 | C[C@H](NC(=O)C1CCCCC1)C(=O)OCc1ccccc1 | 90
26 | C[C@H](NC(=O)C1CCCCC1)C(=O)OCC1CCCCC1 | 92.7
27 | C[C@@H](NC(=O)C1CCCCC1)C(=O)OC1CCCCCCCCCCCCCC1 | 109
28 | C[C@@H](NC(=O)C1CCCCC1)C(=O)OC1CC1 | 97.6
29 | C[C@H](NC(=O)C1CCCCC1)C(=O)OC1CCCCC1 | 91.5
30 | C[C@@H](NC(=O)C1CCCCC1)C(=O)OCc1ccccc1 | 93
31 | C[C@@H](NC(=O)C1CCCCC1)C(=O)OC1CC/C=C\CCC1 (some centres undefined) | 112
32 | C[C@@H](NC(=O)C1CCCCC1)C(=O)OC1CCCCCCCCCCC1 | 105
33 | C[C@@H](NC(=O)C1CCCCC1)C(=O)OC1CCCCCCC1 | 84
34 | C[C@@H](NC(=O)C1CCCCC1)C(=O)OCC1CCCCC1 | 98.3
35 | C[C@@H](NC(=O)C1CCCCC1)C(=O)OC1CCCCC1 | 97.5
36 | O=c1c(O)c(-c2ccc(O)c(O)c2)oc2cc(O)cc(O)c12 [QUERCETIN] | 98.7

System: BV-2
Assay: Antineuroinflammatory activity in mouse BV-2 cells assessed as inhibition of LPS-induced NO production by Griess assay
Assay type: functional, cell-based
Settings: not given

Row | EC50 [µM] | Compound
37 | 23.6 | C[C@H](NC(=O)C1CCCCC1)C(=O)OCc1ccccc1
38 | 8.9 | C[C@H](NC(=O)C1CCCCC1)C(=O)OCC1CCCCC1
39 | 17.3 | C[C@H](NC(=O)C1CCCCC1)C(=O)OC1CCCCC1
40 | 12.4 | C[C@@H](NC(=O)C1CCCCC1)C(=O)OCc1ccccc1
41 | 13 | CO[C@H]1/C=C/C=C/C=C/C[C@H](O)[C@H](C)[C@@H](O)/C(C)=C\CCc2cc(O)cc(c2)NC(=O)C1
42 | 24.1 | C[C@@H](NC(=O)C1CCCCC1)C(=O)OCC1CCCCC1
43 | 22 | C[C@@H](NC(=O)C1CCCCC1)C(=O)OC1CCCCC1
44 | 0.02 | CO[C@H]1/C=C/C=C/C=C/C[C@H](OC(=O)[C@@H](C)NC(=O)C2CCCCC2)[C@H](C)[C@@H](O)/C(C)=C\CCc2cc(O)cc(c2)NC(=O)C1 [TRIENOMYCIN A]

System: PC-12
Assay: Neuroprotective activity against H2O2-induced rat PC-12 cells injury assessed as cell viability at 10 uM preincubated for 4 hrs followed by H2O2 stimulation and measured after 24 hrs by MTT assay (reference value: 56%)
Assay type: functional
Settings: time 28 hrs, read-out: Activity

Row | Compound | viability at 10 µM [%]
45 | C[C@H](NC(=O)C1CCCCC1)C(=O)OCC1CCCCC1 | 76
46 | C[C@H](NC(=O)C1CCCCC1)C(=O)OC1CCCCC1 | 67
47 | C[C@@H](NC(=O)C1CCCCC1)C(=O)OCc1ccccc1 | 80

System: not listed separately
Assay: Neurotoxicity against rat PC-12 cells at 20 uM incubated for 24 hrs by MTT assay
Assay type: toxicity, cell-based
Settings: pc-12, 24 h

Row | Compound | Activity
48 | C[C@@H](NC(=O)C1CCCCC1)C(=O)OC1CCCC1 | Non-Toxic
49 | C[C@H](NC(=O)C1CCCCC1)C(=O)OCc1ccccc1 | Non-Toxic
50 | C[C@H](NC(=O)C1CCCCC1)C(=O)OCC1CCCCC1 | Non-Toxic
51 | C[C@H](NC(=O)C1CCCCC1)C(=O)OC1CCCCC1 | Non-Toxic
52 | C[C@@H](NC(=O)C1CCCCC1)C(=O)OCc1ccccc1 | Non-Toxic
53 | C[C@@H](NC(=O)C1CCCCC1)C(=O)OCC1CCCCC1 | Non-Toxic
54 | C[C@@H](NC(=O)C1CCCCC1)C(=O)OC1CCCCC1 | Non-Toxic
